Measured values taken from ChEMBL document CHEMBL1201862, “PubChem BioAssay data set” (2004).
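Assay format: 96-well plates, 48-hour exposure. GI50: concentration for 50% inhibition of growth.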 Active and inactive are the calls of the source. No stated cut-off is given here; in the data, active = GI50 up to about 1.1 µM and inactive = higher.

Key:
Assay in all cases: growth of human tumour cells (NCI), 48 h
SK-MEL-5 = system: SK-MEL-5
DMS-273 = system: DMS-273
NCI-H460 = system: NCI-H460
U-251 = system: U-251
NCI-H226 = system: NCI-H226
HL-60 = system: HL-60
UO-31 = system: UO-31
SR = system: SR
ACHN = system: ACHN
SK-MEL-28 = system: SK-MEL-28
NCI-H522 = system: NCI-H522
HCT-116 = system: HCT-116
SNB-19 = system: SNB-19
KM12 = system: KM12
HOP-62 = system: HOP-62
MDA-MB-435 = system: MDA-MB-435
MCF7 = system: MCF7
T47D = system: T47D
BT-549 = system: BT-549
PC-3 = system: PC-3

Structure (SMILES)	GI50 (SK-MEL-5)	GI50 (DMS-273)	GI50 (NCI-H460)	GI50 (U-251)	GI50 (NCI-H226)	GI50 (HL-60)	GI50 (UO-31)	GI50 (SR)	GI50 (ACHN)	GI50 (SK-MEL-28)	GI50 (NCI-H522)	GI50 (HCT-116)	GI50 (SNB-19)	GI50 (KM12)	GI50 (HOP-62)	GI50 (MDA-MB-435)	GI50 (MCF7)	GI50 (T47D)	GI50 (BT-549)	GI50 (PC-3)
Cc1ccccc1NC(=O)CC1C(=O)Nc2ccccc2[S+]1[O-] (stereo unspecified)	> 100 µM (inactive)	> 100 µM (inactive)	> 100 µM (inactive)	51.1 µM (inactive)	> 100 µM (inactive)	> 100 µM (inactive)	> 100 µM (inactive)	> 100 µM (inactive)	95.3 µM (inactive)	> 100 µM (inactive)	> 100 µM (inactive)	> 100 µM (inactive)	> 100 µM (inactive)	–	–	–	–	–	–	–
CC(NC(=O)c1ccccc1)C(=O)N(Cc1ccccc1)Cc1ccccc1 (stereo unspecified)	22.5 µM (inactive)	21.3 µM (inactive)	27.4 µM (inactive)	29.8 µM (inactive)	23.4 µM (inactive)	–	27.5 µM (inactive)	29.9 µM (inactive)	31.7 µM (inactive)	25.7 µM (inactive)	23.7 µM (inactive)	25.2 µM (inactive)	36.1 µM (inactive)	26.6 µM (inactive)	25.1 µM (inactive)	–	–	–	–	–
Nc1nc2c3nc(Nc4ccccc4)sc3nc(=O)n2c2sc(Nc3ccccc3)nc12	> 100 µM (inactive)	> 100 µM (inactive)	–	> 100 µM (inactive)	> 100 µM (inactive)	> 100 µM (inactive)	> 100 µM (inactive)	> 100 µM (inactive)	> 100 µM (inactive)	> 100 µM (inactive)	> 100 µM (inactive)	> 100 µM (inactive)	> 100 µM (inactive)	–	> 100 µM (inactive)	–	–	–	–	–
CCCCCC(=O)Nc1[nH]cnc1C(N)=O	> 100 µM (inactive)	–	> 100 µM (inactive)	> 100 µM (inactive)	> 100 µM (inactive)	> 100 µM (inactive)	> 100 µM (inactive)	> 100 µM (inactive)	> 100 µM (inactive)	> 100 µM (inactive)	> 100 µM (inactive)	> 100 µM (inactive)	> 100 µM (inactive)	> 100 µM (inactive)	> 100 µM (inactive)	> 100 µM (inactive)	> 100 µM (inactive)	> 100 µM (inactive)	> 100 µM (inactive)	> 100 µM (inactive)
O=C(O)C(Cc1c[nH]c2ccccc12)C(=O)NO (stereo unspecified)	> 100 µM (inactive)	–	> 100 µM (inactive)	49.8 µM (inactive)	> 100 µM (inactive)	53.7 µM (inactive)	> 100 µM (inactive)	> 100 µM (inactive)	> 100 µM (inactive)	> 100 µM (inactive)	> 100 µM (inactive)	> 100 µM (inactive)	> 100 µM (inactive)	> 100 µM (inactive)	> 100 µM (inactive)	> 100 µM (inactive)	> 100 µM (inactive)	> 100 µM (inactive)	> 100 µM (inactive)	64.1 µM (inactive)
CN(C)CCNc1nc(-c2cccs2)cc(-c2cccs2)n1	15.3 µM (inactive)	10.8 µM (inactive)	3.85 µM (inactive)	10.7 µM (inactive)	15.9 µM (inactive)	–	11.2 µM (inactive)	2.84 µM (inactive)	–	15.9 µM (inactive)	> 10 µM (inactive)	11.3 µM (inactive)	–	12.1 µM (inactive)	18.7 µM (inactive)	–	–	–	–	–
CC1(C)C(=O)CCC(=O)C(C)(C)C2=CC=C(O2)C(C)(C)C(=O)CCC(=O)C(C)(C)C2=CC=C1O2	–	> 100 µM (inactive)	> 100 µM (inactive)	> 100 µM (inactive)	> 100 µM (inactive)	> 100 µM (inactive)	–	> 100 µM (inactive)	> 100 µM (inactive)	> 100 µM (inactive)	> 100 µM (inactive)	> 100 µM (inactive)	> 100 µM (inactive)	> 100 µM (inactive)	> 100 µM (inactive)	–	–	–	–	–
CCCCN(CCCC)C1(c2cc3ccccc3s2)CCCCC1.[O-][Cl+3]([O-])([O-])O	18.7 µM (inactive)	–	13.5 µM (inactive)	17.3 µM (inactive)	17.6 µM (inactive)	17.7 µM (inactive)	18.6 µM (inactive)	16.3 µM (inactive)	16.6 µM (inactive)	18.4 µM (inactive)	12.6 µM (inactive)	10.8 µM (inactive)	18.7 µM (inactive)	16 µM (inactive)	15.1 µM (inactive)	13.3 µM (inactive)	17.3 µM (inactive)	16.2 µM (inactive)	19.9 µM (inactive)	17.9 µM (inactive)
O=C1Nc2ccccc2/C1=C1/Nc2ccccc2/C1=N\OCCOC1OCC(O)C(O)C1O (stereo unspecified)	17.9 µM (inactive)	–	> 100 µM (inactive)	> 100 µM (inactive)	69.3 µM (inactive)	> 100 µM (inactive)	> 100 µM (inactive)	33 µM (inactive)	> 100 µM (inactive)	> 100 µM (inactive)	> 100 µM (inactive)	32.8 µM (inactive)	> 100 µM (inactive)	0.453 µM (active)	6.38 µM (inactive)	> 100 µM (inactive)	53.2 µM (inactive)	41.1 µM (inactive)	> 100 µM (inactive)	27.2 µM (inactive)
